Data reported in PubChem BioAssay (NCI).
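48-hour exposure; five concentrations; linearly interpolated endpoints. TGI denotes the concentration required for complete inhibition of growth.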

Key:
Assay in all cases: NCI tumour cell line growth inhibition, 48 h
[1] = tested on: T-47D breast
[2] = tested on: BT-549 breast
[3] = tested on: SK-MEL-5 melanoma
[4] = tested on: RXF 393 renal
[5] = tested on: LOX IMVI melanoma
[6] = tested on: MDA-MB-435
[7] = tested on: 786-0 renal
[8] = tested on: MDA-MB-231 breast
[9] = tested on: CCRF-CEM leukemia
[10] = tested on: HOP-92 NSCLC
[11] = tested on: HCT-116 colon
[12] = tested on: DU-145 prostate
[13] = tested on: SNB-19 CNS
[14] = tested on: HT29 colon
[15] = tested on: A549 NSCLC
[16] = tested on: HOP-62 NSCLC
[17] = tested on: SN12C renal
[18] = tested on: NCI-H23 lung
[19] = tested on: TK-10 renal
[20] = tested on: HL-60(TB) leukemia
[21] = tested on: SF-539 CNS
[22] = tested on: SF-268 CNS
[23] = tested on: SK-MEL-28 melanoma
[24] = tested on: MCF7 breast
[25] = tested on: NCI-H460 lung
[26] = tested on: UACC-257 melanoma
[27] = tested on: SR leukemia
[28] = tested on: HCT-15 colon
[29] = tested on: K-562 leukemia
[30] = tested on: SF-295 CNS
[31] = tested on: M14 melanoma
[32] = tested on: COLO 205 colon
[33] = tested on: SK-OV-3 ovarian
[34] = tested on: IGROV1 ovarian
[35] = tested on: OVCAR-4 ovarian
[36] = tested on: HCC-2998 colon
[37] = tested on: OVCAR-3 ovarian
[38] = tested on: NCI-H522 lung
[39] = tested on: EKVX NSCLC
[40] = tested on: MDA-N
[41] = tested on: RPMI-8226 leukemia
[42] = tested on: MOLT-4 leukemia
[43] = tested on: SW-620 colon
[44] = tested on: PC-3 prostate
[45] = tested on: OVCAR-5 ovarian
[46] = tested on: SNB-75 CNS
[47] = tested on: U251 CNS
[48] = tested on: UO-31 renal
[49] = tested on: OVCAR-8 ovarian
[50] = tested on: UACC-62 melanoma
[51] = tested on: KM12 colon

Measured: TGI

C(=C\c1ccccc1)/Cn1nc(-c2ccccc2)nc1-c1cnccn1
not listed: [51]
> 100 µM: all other assays above

COc1cccc(N2C(=O)CSC2c2c[nH]c3ccccc23)c1 (configuration not stated)
not listed: [7] | [15] | [21] | [41]
> 100 µM: all other assays above
